Experimental data taken from US11866450B2, “Modulators of Cystic Fibrosis Transmembrane Conductance regulator, pharmaceutical compositions, methods of treatment, and process for making the modulators” (priority 2018, dated 2024).
Where “and” joins values, the source holds several entries; their conditions need not be identical. Identical values can stand only once.

Key:
[1] = from Cc1c(S(=O)(=O)NC(=O)c2ccc(-n3ccc(OCCC4(C(F)(F)F)CC4)n3)nc2Cl)cnn1CCC[C@@H]1CNC(C)(C)C1; snar bond; 14-membered ring; K2CO3/CsF; DMSO; 37.8 mM; 160.0 °C
[2] = target: CFTR-mediated chloride transport (Homo sapiens, UniProt P13569); format: cell-based; details: enteroid cells incubated with test compound 18-24 hours, acute 10 μM forskolin and 300 nM Compound III; for Max. Activity: % of chloride transport with 3 μM Compound A, 3 μM Compound II and 300 nM acute Compound III triple combination control
CFTR-mediated chloride transport, sequence (P13569 whole entry, looked up): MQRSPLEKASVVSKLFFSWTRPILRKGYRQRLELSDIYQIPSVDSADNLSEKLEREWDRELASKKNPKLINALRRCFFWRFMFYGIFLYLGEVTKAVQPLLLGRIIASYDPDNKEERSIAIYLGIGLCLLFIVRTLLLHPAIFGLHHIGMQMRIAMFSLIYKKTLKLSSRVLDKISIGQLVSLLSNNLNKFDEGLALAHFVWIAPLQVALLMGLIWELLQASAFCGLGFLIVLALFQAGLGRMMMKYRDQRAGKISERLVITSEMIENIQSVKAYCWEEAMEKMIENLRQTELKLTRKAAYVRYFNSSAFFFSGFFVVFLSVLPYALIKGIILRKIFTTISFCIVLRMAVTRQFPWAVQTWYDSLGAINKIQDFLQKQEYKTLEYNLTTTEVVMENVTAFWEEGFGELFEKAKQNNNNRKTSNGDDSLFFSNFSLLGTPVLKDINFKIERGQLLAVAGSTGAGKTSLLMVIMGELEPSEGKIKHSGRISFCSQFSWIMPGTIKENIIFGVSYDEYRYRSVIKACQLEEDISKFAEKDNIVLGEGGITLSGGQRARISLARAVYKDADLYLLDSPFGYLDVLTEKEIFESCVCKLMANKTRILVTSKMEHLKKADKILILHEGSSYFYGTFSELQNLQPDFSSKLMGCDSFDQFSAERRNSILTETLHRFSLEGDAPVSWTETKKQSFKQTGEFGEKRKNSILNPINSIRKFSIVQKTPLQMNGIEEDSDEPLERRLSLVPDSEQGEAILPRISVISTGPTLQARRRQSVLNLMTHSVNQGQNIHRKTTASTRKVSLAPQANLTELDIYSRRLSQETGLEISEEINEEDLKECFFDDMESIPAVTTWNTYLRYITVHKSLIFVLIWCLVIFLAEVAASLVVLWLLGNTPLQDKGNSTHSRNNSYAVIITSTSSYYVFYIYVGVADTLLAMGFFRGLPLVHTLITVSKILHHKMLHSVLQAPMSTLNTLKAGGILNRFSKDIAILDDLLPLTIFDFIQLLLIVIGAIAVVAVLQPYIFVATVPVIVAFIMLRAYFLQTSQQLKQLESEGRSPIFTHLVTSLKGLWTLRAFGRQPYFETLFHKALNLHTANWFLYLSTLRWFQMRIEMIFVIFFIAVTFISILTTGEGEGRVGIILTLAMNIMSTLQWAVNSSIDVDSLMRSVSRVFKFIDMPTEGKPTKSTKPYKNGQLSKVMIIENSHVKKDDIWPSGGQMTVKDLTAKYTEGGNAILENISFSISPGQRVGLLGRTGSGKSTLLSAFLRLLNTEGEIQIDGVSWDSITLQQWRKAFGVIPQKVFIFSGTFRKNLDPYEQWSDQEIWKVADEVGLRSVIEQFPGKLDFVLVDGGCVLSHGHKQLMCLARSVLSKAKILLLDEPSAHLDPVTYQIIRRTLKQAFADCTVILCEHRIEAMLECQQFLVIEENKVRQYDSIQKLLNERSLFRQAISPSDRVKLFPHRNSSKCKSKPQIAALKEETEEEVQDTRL
In short: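 Membrane-potential fluorescence AUC over 15 min quantified CFTR chloride transport after acute forskolin (10 μM), IBMX (100 μM) and Compound III (300 nM) in chloride-free buffer. Human enteroid cells were pretreated with compound for 18–24 h; % Activity is relative to 3 μM Compound A + 3 μM Compound II + 300 nM Compound III.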

SMILES: Cc1c2cnn1CCC[C@@H]1CN(c3nc(-n4ccc(OCCC5(C(F)(F)F)CC5)n4)ccc3C(=O)NS2(=O)=O)C(C)(C)C1
- ring closure, yield after HPLC [1]: 6% and 16%

SMILES: CC1(C)C[C@H]2CNc3cccc(n3)S(=O)(=O)NC(=O)c3ccc(-n4ccc(OCCC5(C(F)(F)F)CC5)n4)nc3N1C2 (single isomer, unassigned) [Compound 24, 6,6-dimethyl-10-(3-{2-[1-(trifluoromethyl)cyclopropyl]ethoxy}-1H-pyrazol-1-yl)-16λ^6-thia-2,7,9,15,21-pentaazatetracyclo[15.3.1.14,7.08,13]docosa-1(20),8,10,12,17(21),18-hexaene-14,16,16-trione]
- EC50 [2]: > 3000 nM
- Max. Activity [2]: + (+ is <30%)

SMILES: CC1(C)C[C@H]2CCCOc3ccc(cc3)S(=O)(=O)NC(=O)c3ccc(-n4ccc(OCCC5(C(F)(F)F)CC5)n4)nc3N1C2 (single isomer, unassigned) [Compound 100, 12,12-dimethyl-8-(3-{2-[1-(trifluoromethyl)cyclopropyl]ethoxy}-1H-pyrazol-1-yl)-18-oxa-2λ^6-thia-3,9,11-triazatetracyclo[17.2.2.111,14.05,10]tetracosa-1(21),5,7,9,19,22-hexaene-2,2,4-trione]
- EC50 [2]: > 3000 nM
- Max. Activity [2]: + (+ is <30%)

SMILES: CC1(C)C[C@H]2CCCCn3ccc(n3)S(=O)(=O)NC(=O)c3ccc(-n4ccc(OCCC5(C(F)(F)F)CC5)n4)nc3N1C2 (single isomer, unassigned) [Compound 44, 21,21-dimethyl-4-(3-{2-[1-(trifluoromethyl)cyclopropyl]ethoxy}-1H-pyrazol-1-yl)-10λ^6-thia-1,3,9,14,23-pentaazatetracyclo[17.2.1.111,14.02,7]tricosa-2,4,6,11(23),12-pentaene-8,10,10-trione]
- EC50 [2]: > 3000 nM
- Max. Activity [2]: ++ (++ is 30-60%)

SMILES: CC(C)C(COc1ccn(-c2ccc3c(n2)N2C[C@@H](CC2(C)C)OCCNc2cccc(n2)S(=O)(=O)NC3=O)n1)C(C)C (single isomer, unassigned) [Compound 249, 12,12-dimethyl-8-{3-[3-methyl-2-(propan-2-yl)butoxy]-1H-pyrazol-1-yl}-15-oxa-2λ^6-thia-3,9,11,18,23-pentaazatetracyclo[17.3.1.111,14.05,10]tetracosa-1(23),5(10),6,8,19,21-hexaene-2,2,4-trione]
- EC50 [2]: < 1000 nM
- Max. Activity [2]: +++ (+++ is >60%)

SMILES: C[C@@H]1CC[C@H]2CN(c3nc(N4CCN(CCC(C)(C)C)C4=O)ccc3C(=O)NS(=O)(=O)c3cccc(n3)N1)C(C)(C)C2 (single isomer, unassigned) [Compound 216, 8-[3-(3,3-dimethylbutyl)-2-oxoimidazolidin-1-yl]-12,12,17-trimethyl-2λ^6-thia-3,9,11,18,23-pentaazatetracyclo[17.3.1.111,14.05,10]tetracosa-1(22),5,7,9,19(23),20-hexaene-2,2,4-trione]
- EC50 [2]: < 1000 nM
- Max. Activity [2]: +++ (+++ is >60%)

SMILES: CC1(C)C[C@H]2CCCn3ccc(n3)S(=O)(=O)NC(=O)c3ccc(N4CC[C@H](CCCC5(C(F)(F)F)CC5)C4=O)nc3N1C2 (single isomer, unassigned) [Compound 181, 20,20-Dimethyl-4-(2-oxo-3-{3-[1-(trifluoromethyl)cyclopropyl]propyl}pyrrolidin-1-yl)-10λ^6-thia-1,3,9,14,22-pentaazatetracyclo[16.2.1.111,14.02,7]docosa-2,4,6,11(22),12-pentaene-8,10,10-trione]
- EC50 [2]: 1000 to 3000 nM
- Max. Activity [2]: ++ (++ is 30-60%)

SMILES: CC(C)(C)CCN1CCN(c2ccc3c(n2)N2C[C@@H](CCCNc4cccc(n4)S(=O)(=O)NC3=O)CC2(C)C)C1=O [Compound 128, (14S)-8-[3-(3,3-dimethylbutyl)-2-oxoimidazolidin-1-yl]-12,12-dimethyl-2λ^6-thia-3,9,11,18,23-pentaazatetracyclo[17.3.1.111,14.05,10]tetracosa-1(22),5,7,9,19(23),20-hexaene-2,2,4-trione]
- EC50 [2]: < 1000 nM
- Max. Activity [2]: +++ (+++ is >60%)

SMILES: [2H]c1ccc2nc1NCCC[C@@H]1CN(c3nc(-n4ccc(OCC([2H])([2H])C5C6(CC6)C56CC6)n4)ccc3C(=O)NS2(=O)=O)C(C)(C)C1 [Compound 298, (14S)-8-[3-(2-{dispiro[2.0.2.1]heptan-7-yl}-2,2-dideuterio-ethoxy)-1H-pyrazol-1-yl]-12,12-dimethyl(20-deuterio)-2λ^6-thia-3,9,11,18,23-pentaazatetracyclo[17.3.1.111,14.05,10]tetracosa-1(23),5,7,9,19,21-hexaene-2,2,4-trione]
- EC50 [2]: < 1000 nM
- Max. Activity [2]: +++ (+++ is >60%)

SMILES: CC1(C)C[C@@H]2CCCNc3cccc(n3)S(=O)(=O)NC(=O)c3ccc(N4CC[C@H](CCC5C6(CC6)C56CC6)C4=O)nc3N1C2 (single isomer, unassigned) [Compound 177]
- EC50 [2]: < 1000 nM
- Max. Activity [2]: ++ (++ is 30-60%)

SMILES: CC1(C)CCC(CN2CCN(c3ccc4c(n3)N3C[C@@H](CCCNc5cccc(n5)S(=O)(=O)NC4=O)CC3(C)C)C2=O)CC1 [Compound 217, (14S)-8-{3-[(4,4-Dimethylcyclohexyl)methyl]-2-oxoimidazolidin-1-yl}-12,12-dimethyl-2λ^6-thia-3,9,11,18,23-pentaazatetracyclo[17.3.1.111,14.05,10]tetracosa-1(22),5,7,9,19(23),20-hexaene-2,2,4-trione]
- EC50 [2]: < 1000 nM
- Max. Activity [2]: ++ (++ is 30-60%)

SMILES: CC1(C)C[C@@H]2CCCNc3cccc(n3)S(=O)(=O)NC(=O)c3ccc(N4CC[C@H](OCCCC5(C(F)(F)F)CC5)C4=O)nc3N1C2 (single isomer, unassigned) [Compound 243]
- EC50 [2]: < 1000 nM
- Max. Activity [2]: +++ (+++ is >60%)

SMILES: CC1(C)C[C@H]2CCCn3ccc(n3)S(=O)(=O)NC(=O)c3ccc(N4CC[C@H](CCCC5(C(F)(F)F)CC5)C4=O)nc3N1C2 (single isomer, unassigned) [Compound 182, 20,20-dimethyl-4-(2-oxo-3-{3-[1-(trifluoromethyl)cyclopropyl]propyl}pyrrolidin-1-yl)-10λ^6-thia-1,3,9,14,22-pentaazatetracyclo[16.2.1.111,14.02,7]docosa-2,4,6,11(22),12-pentaene-8,10,10-trione]
- EC50 [2]: < 1000 nM
- Max. Activity [2]: ++ (++ is 30-60%)

SMILES: CC1(C)C[C@H]2CNc3cccc(n3)S(=O)(=O)NC(=O)c3ccc(-n4ccc(OCCC5(C(F)(F)F)CC5)n4)nc3N1C2 (single isomer, unassigned) [Compound 25, 6,6-dimethyl-10-(3-{2-[1-(trifluoromethyl)cyclopropyl]ethoxy}-1H-pyrazol-1-yl)-16λ^6-thia-2,7,9,15,21-pentaazatetracyclo[15.3.1.14,7.08,13]docosa-1(20),8,10,12,17(21),18-hexaene-14,16,16-trione]
- EC50 [2]: < 1000 nM
- Max. Activity [2]: ++ (++ is 30-60%)

SMILES: CC1(C)C[C@H]2CCCCc3ccc(cc3)S(=O)(=O)NC(=O)c3ccc(-n4ccc(OCCC5(C(F)(F)F)CC5)n4)nc3N1C2 (single isomer, unassigned) [Compound 54, 12,12-Dimethyl-8-(3-{2-[1-(trifluoromethyl)cyclopropyl]ethoxy}-1H-pyrazol-1-yl)-2λ^6-thia-3,9,11-triazatetracyclo[17.2.2.111,14.05,10]tetracosa-1(21),5,7,9,19,22-hexaene-2,2,4-trione]
- EC50 [2]: 1000 to 3000 nM
- Max. Activity [2]: ++ (++ is 30-60%)

SMILES: CC1(C)C[C@@H]2CN1c1nc(-n3ccc(OCCC4(C(F)(F)F)CC4)n3)ccc1C(=O)NS(=O)(=O)c1cccc(n1)NCCO2 (single isomer, unassigned) [Compound 74, 12,12-Dimethyl-8-(3-{2-[1-(trifluoromethyl)cyclopropyl]ethoxy}-1H-pyrazol-1-yl)-15-oxa-2λ^6-thia-3,9,11,18,23-pentaazatetracyclo[17.3.1.111,14.05,10]tetracosa-1(22),5(10),6,8,19(23),20-hexaene-2,2,4-trione]
- EC50 [2]: 1000 to 3000 nM
- Max. Activity [2]: + (+ is <30%)

SMILES: CC1(C)C[C@H]2CCNc3cccc(n3)S(=O)(=O)NC(=O)c3ccc(-n4ccc(OCCC(C5CC5)C5CC5)n4)nc3N1C2 (single isomer, unassigned) [Compound 250, 11-[3-(3,3-Dicyclopropylpropoxy)-1H-pyrazol-1-yl]-7,7-dimethyl-17λ^6-thia-2,8,10,16,22-pentaazatetracyclo[16.3.1.15,8.09,14]tricosa-1(22),9,11,13,18,20-hexaene-15,17,17-trione]
- EC50 [2]: < 1000 nM
- Max. Activity [2]: ++ (++ is 30-60%)

SMILES: CC1(C)C[C@H]2CCCn3cc(cn3)S(=O)(=O)NC(=O)c3ccc(-n4ccc(OCCC5(C(F)(F)F)CC5)n4)nc3N1C2 (single isomer, unassigned) [Compound 118, 20,20-Dimethyl-4-(3-{2-[1-(trifluoromethyl)cyclopropyl]ethoxy}-1H-pyrazol-1-yl)-10λ^6-thia-1,3,9,13,14-pentaazatetracyclo[16.2.1.111,14.02,7]docosa-2,4,6,11(22),12-pentaene-8,10,10-trione]
- EC50 [2]: 1000 to 3000 nM
- Max. Activity [2]: + (+ is <30%)

SMILES: CC(C)(C)COc1ccn(-c2ccc3c(n2)N2C[C@H](CCNc4cccc(n4)S(=O)(=O)NC3=O)CC2(C)C)n1 (single isomer, unassigned) [Compound 2, 11-[3-(2,2-dimethylpropoxy)-1H-pyrazol-1-yl]-7,7-dimethyl-17λ^6-thia-2,8,10,16,22-pentaazatetracyclo[16.3.1.15,8.09,14]tricosa-1(21),9(14),10,12,18(22),19-hexaene-15,17,17-trione]
- EC50 [2]: 1000 to 3000 nM
- Max. Activity [2]: +++ (+++ is >60%)
